Reference: patent US20220288091A1, “Method for Improving Insulin Sensitivity” (priority 2019, published 2022)

Tests used:
[1] = system: overweight or obese subjects with prediabetes or mild type 2 diabetes; assay: Frequently sampled intravenous glucose tolerance test (FSIVGTT); assay type: in vivo, human; conditions: Ln(FFA) slope / AUC insulin 0-90 min of FSIVGTT; 50 mg every 6 hours for 9 days; mean±SD, n=16
Protocol: A randomized, placebo-controlled, double-blind crossover trial was conducted to evaluate the use of an anti-glucocorticoid as a means for ameliorating insulin resistance. Mifepristone, 50 mg, or a placebo, was administered every six hours for nine days to sixteen overweight or obese (BMI 25-37 kg/m^2) subjects (seven women). Participant ages ranged from 48 to 64 years. Ten had prediabetes and six had mild diabetes type II (HgbA1c less than 7%). Treatment of the glucose disorder with diet or a stable dose of metformin (used by two patients) was maintained for three (3) months before the study. The interventions were nine days of mifepristone or placebo treatment followed by a six (6) to eight (8) week wash out and cross over to the other arm. At baseline and at the end of each treatment period, parameters of insulin sensitivity were assessed by a frequently sampled intravenous glucose tolerance test (FSIVGTT) and an oral glucose tolerance test (OGTT). […] Adipo-IR, a surrogate measure of adipocyte insulin resistance, was calculated by multiplying fasting concentrations of free fatty acids and insulin (mmol×pmol/L). […]
Insulin sensitivity index, SI, was determined from the minimal model using data from the insulin-modified FSIVGTT as previously described (version 6.02; MinMOD Millenium, Los Angeles, Calif.). […]

[2] = system: overweight or obese subjects with prediabetes or mild type 2 diabetes; assay: 75-g oral glucose tolerance test (OGTT); assay type: in vivo, human; conditions: 50 mg every 6 hours for 9 days
Protocol: A randomized, placebo-controlled, double-blind crossover trial was conducted to evaluate the use of an anti-glucocorticoid as a means for ameliorating insulin resistance. Mifepristone, 50 mg, or a placebo, was administered every six hours for nine days to sixteen overweight or obese (BMI 25-37 kg/m^2) subjects (seven women). Participant ages ranged from 48 to 64 years. Ten had prediabetes and six had mild diabetes type II (HgbA1c less than 7%). Treatment of the glucose disorder with diet or a stable dose of metformin (used by two patients) was maintained for three (3) months before the study. The interventions were nine days of mifepristone or placebo treatment followed by a six (6) to eight (8) week wash out and cross over to the other arm. At baseline and at the end of each treatment period, parameters of insulin sensitivity were assessed by a frequently sampled intravenous glucose tolerance test (FSIVGTT) and an oral glucose tolerance test (OGTT). A whole body glucose disposal index of insulin sensitivity (SI) was derived using a minimal model analysis. Adipose tissue-SI, which reflects insulin-induced free fatty acid suppression, was estimated by the log-linear slope of free fatty acid levels and the AUC of insulin during the FSIVGTT. Matsuda index, oral glucose insulin sensitivity index (OGIS, ml/min/m^2), and hepatic insulin resistance index (HIRI, mg/dl×microU/ml×10^5) were derived from OGTT. Adipo-IR, a surrogate measure of adipocyte insulin resistance, was calculated by multiplying fasting concentrations of free fatty acids and insulin (mmol×pmol/L). Comparison of various post-treatment parameters was performed using crossover ANOVA. This analysis takes into account specific treatment arm, treatment order, and treatment effects. Thus, carryover effects were explicitly tested for in the crossover study.
On day 3 of baseline and post-treatment testing, subjects underwent a 75-gram OGTT. Serial blood draws for measurement of glucose, insulin and c-peptide were obtained at −5, 0, 30, 60, 90, 120, 150, and 180 minutes.
The Matsuda index and Oral Glucose Insulin Sensitivity Index (OGIS), surrogate indices of whole-body insulin sensitivity were derived from plasma glucose and insulin concentrations during the OGTT as previously described. Abdul-Ghani M A, et. al., Diabetes Care 2007; 30 (1): 89-94. HIRI was calculated as the product of the area under the curves of glucose and insulin for the first 30 minutes of the OGTT. Abdul-Ghani M A, ibid. The Adipo-IR index, a surrogate measure for fasting adipose adipose-tissue insulin resistance, was calculated as the product of fasting insulin and fasting FFA. Sondergaard E. et al., J. Clin. Endocrinol. Metab. 2017; 102(4):1193-9. A dynamic surrogate index of adipose tissue insulin sensitivity was assessed by calculating insulin's ability to suppress FFA levels during a FSIVGTT. Carpenter A. et al., Diabetes 2002; 51(6):1867-75 and Trottier A. et al. Fertil. Steril. […]; 98 (6):1627-34. The adipose tissue insulin sensitivity index was calculated as the ratio of the slope of the linear decrease in natural log transformed FFA [Ln (FFA) slope] during the first 90 minutes of the FSIVGTT and the AUC of insulin during that 90-minute period (AUCInsulin 0-90 min). Mathematical modeling of C-peptide concentrations was used to estimate insulin secretory rates and calculate β-cell responsivity parameters (basal (∅B); first-phase (∅1); second phase (∅2); and total (∅TOT) as previously described. Toffolo G. et al., Metabolism 1999; 48 (9):1162-6 and Cobelli C. et al. Am. J. Physiol. Endocrinol. Metab. 2007; 293 (1): E1-E5. Assuming an absence of hepatic C-peptide extraction, postprandial insulin clearance was calculated as the ratio of mean insulin secretion and insulin concentration. Trico D. et al. JCI Insight 2018; 3(24):e124912.

CC#C[C@]1(O)CC[C@H]2[C@@H]3CCC4=CC(=O)CCC4=C3[C@@H](c3ccc(N(C)C)cc3)C[C@@]21C [Mifepristone, 11beta-[p-(dimethylamino)phenyl]-17alpha-(1-propynl)estra-4,9-dien-17beta-ol-3-one]
Adipose-tissue Insulin Sensitivity Index (Adipose SI) [1]: 61.7±32.9
Insulin clearance during OGTT vs placebo [2]: lower
AUC for glucose during OGTT vs placebo ([2]; 3-hr OGTT): not statistically significant
AUC for insulin during OGTT, lower compared to placebo ([2]; 3-hr OGTT): about 25%
Hepatic Insulin Resistance Index (HIRI) ([2]; AUC glucose × AUC insulin, first 30 min of OGTT, mean±SD, n=16): 50.2±38.7 mg/dl×microU/ml×10^5
Fasting insulin secretory rate (ISR) vs placebo ([2]; C-peptide modeling): significantly lower
ISR during OGTT vs placebo ([2]; C-peptide modeling): not different
Static, dynamic and total β-cell responsivity indices vs placebo ([2]; derived from OGTT): similar
